Active and inactive are the calls of the source. No cut-off for these calls is given here.

For one assay, the system named is P388D1. Briefly: Cytotoxicity against […] cells. The assay is classed as functional, cell-based. The settings on record: Mus musculus.
For the next assay, the system named is MCF7. Briefly: Cytotoxicity against human MCF7 cells. The assay is classed as functional, cell-based.
Another assay relates to WiDr. Briefly: Cytotoxicity against human WiDr cells. The format is functional, cell-based.
The test system of a further assay is HL-60. Briefly: Cytotoxicity against human HL60 cells. The assay is classed as functional, cell-based.
Assay [1] deals with SH-SY5Y. Briefly: Neuroprotective activity against 1 hr compound pretreated human SH-SY5Y cells assessed as reduction in 6-OHDA induced damage at 10^-4 uM by MTT assay. Also noted: scale not given: the % may be the effect or the level left. The assay is classed as functional. In general terms: Tetrazolium dyes change colour on reduction, which living cells bring about.
The next assay relates to DLD-1. Briefly: Cytotoxicity against human DLD1 cells. The assay is classed as functional, cell-based.
A further assay deals with CCRF-CEM. Briefly: Cytotoxicity against human CCRF-CEM cells. The format is functional, cell-based.
For assay [2], the system named is SH-SY5Y. Briefly: Neuroprotective activity against 1 hr compound pretreated human SH-SY5Y cells assessed as reduction in 6-OHDA induced damage at 1 uM by MTT assay. The assay is classed as functional. On the set-up: scale not given: the % may be the effect or the level left.
A further assay concerns HEp-2. Briefly: Cytotoxicity against human Hep2 cells. The assay is classed as functional, cell-based.
Assay [3] concerns SH-SY5Y. Briefly: Neuroprotective activity against 1 hr compound pretreated human SH-SY5Y cells assessed as reduction in 6-OHDA induced damage at 10^-3 uM by MTT assay. The assay is classed as functional. Also noted: scale not given: the % may be the effect or the level left.
The test system of assay [4] is SH-SY5Y. Briefly: Neuroprotective activity against 1 hr compound pretreated human SH-SY5Y cells assessed as reduction in 6-OHDA induced damage at 10 uM by MTT assay. The format is functional. On the set-up: scale not given: the % may be the effect or the level left.
The test system of a further assay is Daoy. Briefly: Cytotoxicity against human DaOY cells. The assay is classed as functional, cell-based.
For assay [5], the system named is SH-SY5Y. Briefly: Neuroprotective activity against 1 hr compound pretreated human SH-SY5Y cells assessed as reduction in 6-OHDA induced damage at 10^-2 uM by MTT assay. The assay is classed as functional. On the set-up: scale not given: the % may be the effect or the level left.
The test system of assay [6] is SH-SY5Y. Briefly: Neuroprotective activity against 1 hr compound pretreated human SH-SY5Y cells assessed as reduction in 6-OHDA induced damage at 10^-1 uM by MTT assay. The assay is classed as functional. On the set-up: scale not given: the % may be the effect or the level left.
For assay [7], the system named is RAW264.7. Briefly: Antiinflammatory activity in mouse RAW264.7 cells assessed as inhibition of LPS-induced up-regulation of pro-inflammatory protein iNOS by Western blot analysis. The format is functional. On the technique in general: Immunoblotting shows a protein as a band on a membrane.
Assay [8] relates to RAW264.7. Briefly: Antiinflammatory activity in mouse RAW264.7 cells assessed as inhibition of LPS-induced up-regulation of pro-inflammatory protein COX-2 by Western blot analysis. The format is functional.
For assay [9], the system named is SH-SY5Y. Briefly: Neuroprotective activity against 1 hr compound pretreated human SH-SY5Y cells assessed as reduction in 6-OHDA induced damage at 10 '-4 to 10 uM by MTT assay. The assay is classed as functional. On the set-up: scale not given: the % may be the effect or the level left.
Setting [10] is: read-out: ED50 (the source's name).

For the compound `C[C@@H]1[C@@H](O)O[C@@]23C=CC[C@H](C)[C@@]2(C)[C@H]1C(=O)CC3` [FLAVALIN B], the outcome in the assay with P388D1, in the assay on MCF7, in the assay with WiDr, in the assay on HL-60, in the assay with DLD-1 and in the assay on CCRF-CEM was inactive. Further, the outcome in the assay on HEp-2 and in the assay on Daoy was inactive. Also, the Activity in the assay on SH-SY5Y [1] turned out to be 29.6%; with SH-SY5Y [2], 21.3%; with SH-SY5Y [3], 32.6%; in the assay on SH-SY5Y [4], 30.1%; in the assay with SH-SY5Y [5], 30.2%; in the assay on SH-SY5Y [6], 24.3%.

As for `C[C@@H]1[C@@H]2O[C@H]3CC[C@@]4(C=CC[C@H](C)[C@@]4(C)[C@H]13)O2` [FLAVALIN A], the outcome in the assay with P388D1, in the assay on MCF7, in the assay on WiDr, in the assay with HL-60, in the assay on DLD-1 and with CCRF-CEM was inactive. Also, the outcome with HEp-2 and in the assay with Daoy was inactive. The Activity result is “Dose-dependent effect” in the assay on RAW264.7 [7]; 16.9% in the assay on SH-SY5Y [1]; 35.1% in the assay on SH-SY5Y [2]; 5.84% in the assay on SH-SY5Y [3]; 20.9% in the assay on SH-SY5Y [4]; “Dose-dependent effect” in the assay on RAW264.7 [8]. The results for the Activity in the assay on SH-SY5Y [5] and in the assay on SH-SY5Y [6] were 30.8% and 25.3%, respectively. Besides, the EC50 was 20.5 µM in the assay on RAW264.7 [7] (setting [10]) and 26.5 µM with RAW264.7 [8] (setting [10]).

Take `CO[C@@H]1O[C@@]23C=CC[C@H](C)[C@@]2(C)[C@@H](C(=O)CC3)[C@@H]1C` [FLAVALIN D]: the outcome in the assay with P388D1, with MCF7, in the assay on WiDr, in the assay on HL-60, with DLD-1 and with CCRF-CEM was inactive. The outcome in the assay with HEp-2 and in the assay on Daoy was inactive. Also, the Activity in the assay on SH-SY5Y [9] is less than 20%.

As for `CO[C@H]1O[C@@]23C=CC[C@H](C)[C@@]2(C)[C@@H](C(=O)CC3)[C@@H]1C` [FLAVALIN C], the result in the assay on P388D1, in the assay on MCF7, in the assay on WiDr, in the assay with HL-60, with DLD-1 and with CCRF-CEM was inactive. Moreover, the outcome in the assay on HEp-2 and in the assay on Daoy was inactive. In addition, the Activity in the assay on SH-SY5Y [9] is recorded as less than 20%.

Source of the values: ChEMBL document CHEMBL1687855, “Nardosinane sesquiterpenoids from the Formosan soft coral Lemnalia flava” (2011).
